Data as given in US9481688B2, “(Thieno[2,3-b][1,5]benzoxazepin-4-yl)piperazin-1-yl compounds as dual activity H1 inverse agonists/5-HT2A antagonists” (Eli Lilly and Company, priority 2011, dated 2016).
Structures can show the parent of a compound that is named as a salt.

Key:
Dopamine D2 = Dopamine D2 (Homo sapiens (Human), UniProt P14416); test: Dopamine D2 binding; settings: dihydrochloride
From the text: (§1) Further, the compounds of the invention may be tested in binding assays and functional activity assays by well known methods for other physiologically important receptors such as, but not limited to, the hERG channel, other serotonin receptors (specifically 5-HT1B, 5-HT1D, receptors, lack of agonist activity at 5-HT2B receptors, 5-HT2C, 5-HT5, 5-HT6, and 5-HT7 receptors), dopaminergic receptors (specifically D1, D2, and D3), GABAA receptors, adrenergic receptors and monoamine transporters.

5-HT6 = 5-HT6 (Homo sapiens (Human), UniProt P50406); test: 5-HT6 binding
From the text: as §1

Adrenergic alpha2C = Adrenergic alpha2C (Homo sapiens (Human), UniProt P18825); test: Adrenergic alpha2C binding
From the text: as §1

5-HT1D = 5-HT1D (Homo sapiens (Human), UniProt P28221); test: 5-HT1D binding
From the text: as §1

Wistar rats = test: Sleep and behavioral monitoring in rats (EEG, EMG, motion); settings: for Rebound Insomnia, Adj. Mean: NREM + REM sleep in 7th-9th hours post-treatment; for Rebound Insomnia, Adj. Mean / REM inhibition, Adj. Mean / Cumulative NREM sleep, Adj. Mean / Cumulative Total sleep, Adj. Mean / Locomotor Activity Intensity, Adj. Mean: difference from vehicle; for REM inhibition, Adj. Mean: REM sleep in first 12 hr. post-treatment; for Average Sleep Bout, Adj. Mean / Longest Sleep Bout, Adj. Mean / Cumulative NREM sleep, Adj. Mean / Cumulative Total sleep, Adj. Mean / Locomotor Activity Intensity, Adj. Mean: first 6 hr. post-treatment
native GABAA receptors = test: GABAA antagonism using native receptors in primary neuronal cultures (FLIPR calcium flux); type: cell-based, rat; settings: against 10 μM GABA
Method: Activity of compounds on native GABAA receptors is evaluated by monitoring calcium fluxes using a 96 well format FLIPR® system (Fluorometric Imaging Plate Reader (FLIPR®, Molecular Devices). Briefly, cortical embryonic neurons are dissociated from E18 rat embryos and plated at optimum density into black-walled, transparent bottom poly-D-lysine coated 96-well FLIPR® plates. After loading the cells with a calcium sensitive dye (Fluo4-AM, Molecular Devices), the cells are bathed in a solution containing low chloride (chloride replaced by gluconate). Under these conditions activation of GABAA receptors causes an efflux of chloride ions (in the direction of the chemical gradient), which results in membrane depolarization and consequently activation of voltage gated calcium channels (VGCCs). Calcium influx through VGCCs is recorded and analysed offline using the FLIPR® system. For a pharmacological validation of the assay, concentration response curves (CRC) are recorded for the standard agonist (GABA) and standard antagonist (Gabazine). […]
The antagonist effects of compounds are quantified using 10-point dose response curves by comparing the peak fluorescent responses to the agonist GABA in the presence and absence of compound. […] Antagonist effects are calculated as a percent of the assay window. […]

5-HT5 = 5-HT5 (Homo sapiens (Human), UniProt P47898); test: 5-HT5 binding
From the text: as §1

hERG channel = hERG channel (Homo sapiens (Human), UniProt Q12809); test: hERG channel assay
From the text: as §1

[1] = rat, PO, 6 hr. after treatment, 4 parameter logistic regression

Adrenergic alpha2C, sequence (P18825 whole entry): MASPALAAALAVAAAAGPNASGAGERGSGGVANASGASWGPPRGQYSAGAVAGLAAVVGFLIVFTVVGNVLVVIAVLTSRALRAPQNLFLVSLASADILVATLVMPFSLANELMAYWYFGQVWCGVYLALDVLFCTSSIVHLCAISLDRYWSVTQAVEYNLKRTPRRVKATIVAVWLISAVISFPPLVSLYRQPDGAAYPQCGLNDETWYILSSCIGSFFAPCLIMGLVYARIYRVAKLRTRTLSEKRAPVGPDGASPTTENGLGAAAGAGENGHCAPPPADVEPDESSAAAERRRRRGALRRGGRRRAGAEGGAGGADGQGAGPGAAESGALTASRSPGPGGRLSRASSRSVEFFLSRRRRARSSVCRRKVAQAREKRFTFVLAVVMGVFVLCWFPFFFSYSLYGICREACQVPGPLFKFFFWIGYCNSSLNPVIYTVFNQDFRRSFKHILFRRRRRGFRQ
5-HT1D, sequence (P28221 whole entry, species assumed): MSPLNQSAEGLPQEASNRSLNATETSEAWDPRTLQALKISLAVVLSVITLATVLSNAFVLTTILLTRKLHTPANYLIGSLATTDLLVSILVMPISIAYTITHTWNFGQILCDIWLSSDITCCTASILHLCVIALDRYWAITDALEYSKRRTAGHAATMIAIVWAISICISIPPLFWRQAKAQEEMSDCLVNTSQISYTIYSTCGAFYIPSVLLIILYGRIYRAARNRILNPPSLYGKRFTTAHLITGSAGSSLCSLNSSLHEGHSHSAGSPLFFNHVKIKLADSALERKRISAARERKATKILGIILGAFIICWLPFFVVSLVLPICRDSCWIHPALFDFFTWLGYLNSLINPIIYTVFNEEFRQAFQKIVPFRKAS
5-HT6, sequence (P50406 whole entry, species assumed): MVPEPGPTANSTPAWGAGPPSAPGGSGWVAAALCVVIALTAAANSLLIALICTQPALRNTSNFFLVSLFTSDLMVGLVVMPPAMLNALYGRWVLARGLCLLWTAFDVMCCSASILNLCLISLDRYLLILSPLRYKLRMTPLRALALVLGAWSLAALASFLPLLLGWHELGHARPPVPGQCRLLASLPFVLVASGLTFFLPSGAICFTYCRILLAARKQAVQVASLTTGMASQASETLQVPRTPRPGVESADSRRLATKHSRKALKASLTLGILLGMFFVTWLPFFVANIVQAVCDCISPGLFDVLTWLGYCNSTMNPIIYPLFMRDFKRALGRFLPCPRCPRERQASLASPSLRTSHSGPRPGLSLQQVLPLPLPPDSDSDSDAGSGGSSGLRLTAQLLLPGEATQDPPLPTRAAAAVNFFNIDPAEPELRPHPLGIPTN
hERG channel, sequence (Q12809 whole entry): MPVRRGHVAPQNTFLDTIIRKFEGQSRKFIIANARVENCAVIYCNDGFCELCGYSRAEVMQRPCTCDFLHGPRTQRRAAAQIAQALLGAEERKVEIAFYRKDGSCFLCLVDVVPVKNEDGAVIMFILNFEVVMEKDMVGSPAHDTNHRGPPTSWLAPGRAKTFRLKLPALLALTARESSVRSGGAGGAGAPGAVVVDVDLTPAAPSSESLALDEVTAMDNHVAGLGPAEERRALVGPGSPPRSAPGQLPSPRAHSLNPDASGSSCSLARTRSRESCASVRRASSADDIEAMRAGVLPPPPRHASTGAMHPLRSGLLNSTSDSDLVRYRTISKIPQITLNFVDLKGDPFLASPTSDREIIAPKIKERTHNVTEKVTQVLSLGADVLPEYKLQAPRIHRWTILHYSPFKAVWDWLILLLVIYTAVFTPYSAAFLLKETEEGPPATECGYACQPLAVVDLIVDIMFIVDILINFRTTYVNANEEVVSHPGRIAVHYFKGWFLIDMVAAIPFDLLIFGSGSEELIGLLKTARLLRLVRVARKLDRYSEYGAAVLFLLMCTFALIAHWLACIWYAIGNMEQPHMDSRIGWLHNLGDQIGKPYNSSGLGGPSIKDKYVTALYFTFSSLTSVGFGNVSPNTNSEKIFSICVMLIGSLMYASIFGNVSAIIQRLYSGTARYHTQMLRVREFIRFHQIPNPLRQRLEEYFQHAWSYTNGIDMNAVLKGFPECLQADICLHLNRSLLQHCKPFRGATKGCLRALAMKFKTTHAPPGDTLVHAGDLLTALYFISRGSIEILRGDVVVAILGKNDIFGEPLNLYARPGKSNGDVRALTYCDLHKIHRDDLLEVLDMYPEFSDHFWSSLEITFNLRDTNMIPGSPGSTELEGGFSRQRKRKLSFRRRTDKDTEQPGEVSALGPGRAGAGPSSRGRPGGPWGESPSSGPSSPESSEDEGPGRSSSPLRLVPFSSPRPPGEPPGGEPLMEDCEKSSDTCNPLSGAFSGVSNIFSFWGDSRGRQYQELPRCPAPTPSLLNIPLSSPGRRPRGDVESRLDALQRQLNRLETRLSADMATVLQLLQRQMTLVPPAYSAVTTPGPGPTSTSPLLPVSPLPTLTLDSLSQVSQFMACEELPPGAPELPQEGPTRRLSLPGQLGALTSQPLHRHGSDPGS
5-HT5, sequence (P47898 whole entry, species assumed): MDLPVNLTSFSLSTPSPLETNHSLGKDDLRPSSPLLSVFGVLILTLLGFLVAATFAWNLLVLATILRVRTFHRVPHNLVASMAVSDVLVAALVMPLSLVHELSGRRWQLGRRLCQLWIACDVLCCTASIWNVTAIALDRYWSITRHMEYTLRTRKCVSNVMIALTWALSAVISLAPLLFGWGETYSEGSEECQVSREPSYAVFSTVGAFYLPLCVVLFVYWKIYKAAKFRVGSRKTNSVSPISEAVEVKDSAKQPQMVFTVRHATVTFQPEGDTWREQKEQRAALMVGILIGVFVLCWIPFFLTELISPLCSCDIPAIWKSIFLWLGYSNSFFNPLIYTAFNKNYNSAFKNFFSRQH
Dopamine D2, sequence (P14416 whole entry): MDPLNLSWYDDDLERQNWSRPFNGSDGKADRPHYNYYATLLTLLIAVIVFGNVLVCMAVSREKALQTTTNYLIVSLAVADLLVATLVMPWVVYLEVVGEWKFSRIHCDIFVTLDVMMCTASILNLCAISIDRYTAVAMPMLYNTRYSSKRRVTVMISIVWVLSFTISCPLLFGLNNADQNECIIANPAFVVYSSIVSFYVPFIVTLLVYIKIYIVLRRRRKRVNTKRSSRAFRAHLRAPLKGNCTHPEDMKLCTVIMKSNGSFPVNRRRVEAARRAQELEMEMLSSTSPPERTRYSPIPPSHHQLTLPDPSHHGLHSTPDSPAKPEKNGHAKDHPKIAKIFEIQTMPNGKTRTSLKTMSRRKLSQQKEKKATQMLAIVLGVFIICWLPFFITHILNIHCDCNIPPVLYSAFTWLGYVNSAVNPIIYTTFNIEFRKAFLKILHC

Structure (SMILES): Cc1ccc2c(c1)Oc1sc(Cl)cc1C(N1CCN(CC(C)(C)C(=O)O)CC1)=N2 [Example 3, 3-[4-(2-chloro-8-methyl-thieno[2,3-b][1,5]benzoxazepin-4-yl)piperazin-1-yl]-2,2-dimethyl-propanoic acid dihydrochloride]
- Ki (Dopamine D2): > 4.57 µM
- Ki (5-HT6): > 5.83 µM
- Ki (Adrenergic alpha2C): > 4.23 µM
- Ki (5-HT1D): > 3.98 µM
- Rebound Insomnia, Adj. Mean (Wistar rats; 0.025 mg/kg PO): 1.4 min
- REM inhibition, Adj. Mean (Wistar rats; 0.025 mg/kg PO): 0.5 min
- Average Sleep Bout, Adj. Mean (Wistar rats; 0.025 mg/kg PO): 1.2 n-fold increase over vehicle controls
- Longest Sleep Bout, Adj. Mean (Wistar rats; 0.025 mg/kg PO): 1.1 n-fold increase over vehicle controls
- Cumulative NREM sleep, Adj. Mean (Wistar rats; 0.025 mg/kg PO): 6.5 min
- Cumulative Total sleep, Adj. Mean (Wistar rats; 0.025 mg/kg PO): 7.7 min
- Locomotor Activity Intensity, Adj. Mean (Wistar rats; 0.025 mg/kg PO): 0.2 LMA counts per minute of EEG-defined wakefulness
- Rebound Insomnia, Adj. Mean (Wistar rats; 0.035 mg/kg PO): 1.3 min
- REM inhibition, Adj. Mean (Wistar rats; 0.035 mg/kg PO): -1.8 min
- Average Sleep Bout, Adj. Mean (Wistar rats; 0.035 mg/kg PO): 1.3 n-fold increase over vehicle controls
- Longest Sleep Bout, Adj. Mean (Wistar rats; 0.035 mg/kg PO): 1.1 n-fold increase over vehicle controls
- Cumulative NREM sleep, Adj. Mean (Wistar rats; 0.035 mg/kg PO): 19.2 min
- Cumulative Total sleep, Adj. Mean (Wistar rats; 0.035 mg/kg PO): 18.9 min
- Locomotor Activity Intensity, Adj. Mean (Wistar rats; 0.035 mg/kg PO): 0.2 LMA counts per minute of EEG-defined wakefulness
- Rebound Insomnia, Adj. Mean (Wistar rats; 0.05 mg/kg PO): 0.2 min
- REM inhibition, Adj. Mean (Wistar rats; 0.05 mg/kg PO): 4.2 min
- Average Sleep Bout, Adj. Mean (Wistar rats; 0.05 mg/kg PO): 1.6 n-fold increase over vehicle controls
- Longest Sleep Bout, Adj. Mean (Wistar rats; 0.05 mg/kg PO): 1.4 n-fold increase over vehicle controls
- Cumulative NREM sleep, Adj. Mean (Wistar rats; 0.05 mg/kg PO): 23.4 min
- Cumulative Total sleep, Adj. Mean (Wistar rats; 0.05 mg/kg PO): 25.3 min
- Locomotor Activity Intensity, Adj. Mean (Wistar rats; 0.05 mg/kg PO): −0.3 LMA counts per minute of EEG-defined wakefulness
- Rebound Insomnia, Adj. Mean (Wistar rats; 0.1 mg/kg PO): -3.7 min
- REM inhibition, Adj. Mean (Wistar rats; 0.1 mg/kg PO): 4.9 min
- Average Sleep Bout, Adj. Mean (Wistar rats; 0.1 mg/kg PO): 1.7 n-fold increase over vehicle controls
- Longest Sleep Bout, Adj. Mean (Wistar rats; 0.1 mg/kg PO): 1.5 n-fold increase over vehicle controls
- Cumulative NREM sleep, Adj. Mean (Wistar rats; 0.1 mg/kg PO): 26.7 min
- Cumulative Total sleep, Adj. Mean (Wistar rats; 0.1 mg/kg PO): 28.7 min
- Locomotor Activity Intensity, Adj. Mean (Wistar rats; 0.1 mg/kg PO): 0.1 LMA counts per minute of EEG-defined wakefulness
- Rebound Insomnia, Adj. Mean (Wistar rats; 0.25 mg/kg PO): -2.2 min
- REM inhibition, Adj. Mean (Wistar rats; 0.25 mg/kg PO): 2.0 min
- Average Sleep Bout, Adj. Mean (Wistar rats; 0.25 mg/kg PO): 2.1 n-fold increase over vehicle controls
- Longest Sleep Bout, Adj. Mean (Wistar rats; 0.25 mg/kg PO): 2.0 n-fold increase over vehicle controls
- Cumulative NREM sleep, Adj. Mean (Wistar rats; 0.25 mg/kg PO): 37.9 min
- Cumulative Total sleep, Adj. Mean (Wistar rats; 0.25 mg/kg PO): 38.9 min
- Locomotor Activity Intensity, Adj. Mean (Wistar rats; 0.25 mg/kg PO): −0.7 LMA counts per minute of EEG-defined wakefulness
- Rebound Insomnia, Adj. Mean (Wistar rats; 0.5 mg/kg PO): -5.0 min
- REM inhibition, Adj. Mean (Wistar rats; 0.5 mg/kg PO): 0.4 min
- Average Sleep Bout, Adj. Mean (Wistar rats; 0.5 mg/kg PO): 1.8 n-fold increase over vehicle controls
- Longest Sleep Bout, Adj. Mean (Wistar rats; 0.5 mg/kg PO): 2.2 n-fold increase over vehicle controls
- Cumulative NREM sleep, Adj. Mean (Wistar rats; 0.5 mg/kg PO): 32.9 min
- Cumulative Total sleep, Adj. Mean (Wistar rats; 0.5 mg/kg PO): 30.9 min
- Locomotor Activity Intensity, Adj. Mean (Wistar rats; 0.5 mg/kg PO): 0.6 LMA counts per minute of EEG-defined wakefulness
- Rebound Insomnia, Adj. Mean (Wistar rats; 1 mg/kg PO): 1.6 min
- REM inhibition, Adj. Mean (Wistar rats; 1 mg/kg PO): -0.1 min
- Average Sleep Bout, Adj. Mean (Wistar rats; 1 mg/kg PO): 1.7 n-fold increase over vehicle controls
- Longest Sleep Bout, Adj. Mean (Wistar rats; 1 mg/kg PO): 2.0 n-fold increase over vehicle controls
- Cumulative NREM sleep, Adj. Mean (Wistar rats; 1 mg/kg PO): 34.0 min
- Cumulative Total sleep, Adj. Mean (Wistar rats; 1 mg/kg PO): 33.6 min
- Locomotor Activity Intensity, Adj. Mean (Wistar rats; 1 mg/kg PO): −1.6 LMA counts per minute of EEG-defined wakefulness
- Rebound Insomnia, Adj. Mean (Wistar rats; 3 mg/kg PO): 0.3 min
- REM inhibition, Adj. Mean (Wistar rats; 3 mg/kg PO): -4.6 min
- Average Sleep Bout, Adj. Mean (Wistar rats; 3 mg/kg PO): 2.0 n-fold increase over vehicle controls
- Longest Sleep Bout, Adj. Mean (Wistar rats; 3 mg/kg PO): 2.7 n-fold increase over vehicle controls
- Cumulative NREM sleep, Adj. Mean (Wistar rats; 3 mg/kg PO): 31.7 min
- Cumulative Total sleep, Adj. Mean (Wistar rats; 3 mg/kg PO): 29.7 min
- Locomotor Activity Intensity, Adj. Mean (Wistar rats; 3 mg/kg PO): −3.1 LMA counts per minute of EEG-defined wakefulness
- Rebound Insomnia, Adj. Mean (Wistar rats; 10 mg/kg PO): -3.1 min
- REM inhibition, Adj. Mean (Wistar rats; 10 mg/kg PO): -9.4 min
- Average Sleep Bout, Adj. Mean (Wistar rats; 10 mg/kg PO): 2.0 n-fold increase over vehicle controls
- Longest Sleep Bout, Adj. Mean (Wistar rats; 10 mg/kg PO): 2.3 n-fold increase over vehicle controls
- Cumulative NREM sleep, Adj. Mean (Wistar rats; 10 mg/kg PO): 29.1 min
- Cumulative Total sleep, Adj. Mean (Wistar rats; 10 mg/kg PO): 26.5 min
- Locomotor Activity Intensity, Adj. Mean (Wistar rats; 10 mg/kg PO): −1.9 LMA counts per minute of EEG-defined wakefulness
- change in awake time following treatment (dose response curve, FIG. 2) (Wistar rats; rat): does not result in rebound insomnia
- change in cumulative REM sleep time (dose response curve, FIG. 1) (Wistar rats; rat): does not inhibit REM sleep
- change in distances moved during periods of wakefulness (dose response curve, FIG. 3) (Wistar rats; rat): does not inhibit or stimulate normal activity
- Estimated efficacy dose, NREM accumulation = 30 min. (Wistar rats; [1]): 0.09 mg/kg
- Estimated efficacy dose, average sleep bout (1.5-fold increase) (Wistar rats; [1]): 0.04 mg/kg
- Estimated efficacy dose, longest sleep bout (1.75-fold increase) (Wistar rats; [1]): 0.12 mg/kg
- Estimated efficacy dose, total sleep accumulation = 25 min. (Wistar rats; [1]): 0.05 mg/kg
- REM sleep inhibition (Wistar rats; rat, at 3 mg/kg): without significant
- cumulative NREM sleep time (Wistar rats; rat, at 3 mg/kg): significantly increase
- cumulative total sleep time (Wistar rats; rat, at 3 mg/kg): significantly increase
- inhibition of locomotor intensity (LMI) (Wistar rats; rat, at 3 mg/kg): without significant
- rebound insomnia (Wistar rats; rat, at 3 mg/kg): without significant rebound insomnia
- NREM sleep (Wistar rats; rat, coadministered with citalopram): significantly increase NREM sleep at significantly lower doses
- IC50 (native GABAA receptors): > 100 µM
- Ki (5-HT5): > 8.81 µM
- hERG Channel (hERG channel): >100 µM
